In patent US11072612B2, “NLRP3 modulators” (INNATE TUMOR IMMUNITY, INC., priority 2016, dated 2021) one finds EC50 data, which are given here for 15 molecules.

The structures appear in SMILES notation.

What all share (format): cell-based
One assay deals with T1, TLR7 (Homo sapiens, UniProt Q9NYK1).
T1 sequence (Q9NYK1 27-1049): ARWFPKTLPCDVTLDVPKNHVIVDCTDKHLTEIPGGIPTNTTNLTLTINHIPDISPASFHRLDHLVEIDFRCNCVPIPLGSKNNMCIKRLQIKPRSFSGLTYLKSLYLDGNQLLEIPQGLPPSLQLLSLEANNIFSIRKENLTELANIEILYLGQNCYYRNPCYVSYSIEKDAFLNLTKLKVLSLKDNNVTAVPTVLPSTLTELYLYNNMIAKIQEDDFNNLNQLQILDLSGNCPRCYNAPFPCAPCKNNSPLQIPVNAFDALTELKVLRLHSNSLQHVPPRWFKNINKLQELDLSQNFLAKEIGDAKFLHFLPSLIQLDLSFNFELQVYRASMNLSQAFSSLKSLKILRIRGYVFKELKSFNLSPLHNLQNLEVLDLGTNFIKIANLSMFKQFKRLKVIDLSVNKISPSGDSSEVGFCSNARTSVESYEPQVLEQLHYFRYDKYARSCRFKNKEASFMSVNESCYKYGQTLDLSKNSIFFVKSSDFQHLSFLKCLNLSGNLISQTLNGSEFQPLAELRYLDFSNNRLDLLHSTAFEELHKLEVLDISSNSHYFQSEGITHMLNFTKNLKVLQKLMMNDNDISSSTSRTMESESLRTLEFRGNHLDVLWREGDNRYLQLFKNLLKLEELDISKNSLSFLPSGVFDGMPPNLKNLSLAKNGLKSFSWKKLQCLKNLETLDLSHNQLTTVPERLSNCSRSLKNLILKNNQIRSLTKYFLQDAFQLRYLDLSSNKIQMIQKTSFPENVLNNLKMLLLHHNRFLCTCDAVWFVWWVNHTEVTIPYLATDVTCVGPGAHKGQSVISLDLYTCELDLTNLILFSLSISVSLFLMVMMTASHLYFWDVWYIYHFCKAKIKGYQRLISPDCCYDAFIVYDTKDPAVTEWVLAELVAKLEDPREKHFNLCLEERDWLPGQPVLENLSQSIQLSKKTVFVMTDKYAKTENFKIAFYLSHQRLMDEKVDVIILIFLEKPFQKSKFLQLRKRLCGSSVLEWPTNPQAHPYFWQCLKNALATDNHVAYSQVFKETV
The experiment in a line: TLR7 EC50 assay.

The target in a further assay is T2, hNLRP3 (Homo sapiens, UniProt Q96P20).
T2 construct: THP-1 cells were purchased from the American Type Culture Collection; host or cells: THP-1 cells, PMA-differentiated
T2 sequence (Q96P20 whole entry): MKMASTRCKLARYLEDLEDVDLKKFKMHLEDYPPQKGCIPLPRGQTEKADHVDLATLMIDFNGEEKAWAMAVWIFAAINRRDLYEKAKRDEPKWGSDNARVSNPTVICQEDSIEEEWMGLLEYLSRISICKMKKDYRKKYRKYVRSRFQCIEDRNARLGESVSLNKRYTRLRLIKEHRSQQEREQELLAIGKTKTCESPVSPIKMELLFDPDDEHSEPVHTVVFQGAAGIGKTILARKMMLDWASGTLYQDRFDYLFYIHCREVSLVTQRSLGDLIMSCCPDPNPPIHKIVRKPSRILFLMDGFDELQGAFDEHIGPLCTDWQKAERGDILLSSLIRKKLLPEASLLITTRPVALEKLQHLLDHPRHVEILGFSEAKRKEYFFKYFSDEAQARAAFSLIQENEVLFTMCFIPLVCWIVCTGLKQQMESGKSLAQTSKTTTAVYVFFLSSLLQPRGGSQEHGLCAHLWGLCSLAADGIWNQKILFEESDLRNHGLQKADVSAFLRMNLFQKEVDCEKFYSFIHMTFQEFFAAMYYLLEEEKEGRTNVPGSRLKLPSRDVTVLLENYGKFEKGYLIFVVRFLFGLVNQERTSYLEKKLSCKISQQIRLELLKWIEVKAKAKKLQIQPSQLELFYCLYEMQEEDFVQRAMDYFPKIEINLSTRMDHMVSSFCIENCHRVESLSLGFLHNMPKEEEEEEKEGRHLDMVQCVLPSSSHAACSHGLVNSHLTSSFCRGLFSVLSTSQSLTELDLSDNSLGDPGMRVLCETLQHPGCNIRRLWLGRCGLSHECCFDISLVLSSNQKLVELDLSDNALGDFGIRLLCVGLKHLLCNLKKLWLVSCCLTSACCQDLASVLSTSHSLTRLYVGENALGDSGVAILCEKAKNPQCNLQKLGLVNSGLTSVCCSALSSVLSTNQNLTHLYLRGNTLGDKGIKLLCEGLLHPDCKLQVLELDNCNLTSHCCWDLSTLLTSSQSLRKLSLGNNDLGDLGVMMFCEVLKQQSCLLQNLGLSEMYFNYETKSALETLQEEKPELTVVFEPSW
The assay is described as follows: hNLRP3 agonist assay: IL-1β production in PMA-differentiated THP-1 cells (ELISA). The conditions noted are these: IL-1β by ELISA. Background: An ELISA detects its analyte on a solid surface through an enzyme-linked reagent.

The target in another assay is T3, TLR8 (Homo sapiens, UniProt Q9NR97).
T3 sequence (Q9NR97 27-1041): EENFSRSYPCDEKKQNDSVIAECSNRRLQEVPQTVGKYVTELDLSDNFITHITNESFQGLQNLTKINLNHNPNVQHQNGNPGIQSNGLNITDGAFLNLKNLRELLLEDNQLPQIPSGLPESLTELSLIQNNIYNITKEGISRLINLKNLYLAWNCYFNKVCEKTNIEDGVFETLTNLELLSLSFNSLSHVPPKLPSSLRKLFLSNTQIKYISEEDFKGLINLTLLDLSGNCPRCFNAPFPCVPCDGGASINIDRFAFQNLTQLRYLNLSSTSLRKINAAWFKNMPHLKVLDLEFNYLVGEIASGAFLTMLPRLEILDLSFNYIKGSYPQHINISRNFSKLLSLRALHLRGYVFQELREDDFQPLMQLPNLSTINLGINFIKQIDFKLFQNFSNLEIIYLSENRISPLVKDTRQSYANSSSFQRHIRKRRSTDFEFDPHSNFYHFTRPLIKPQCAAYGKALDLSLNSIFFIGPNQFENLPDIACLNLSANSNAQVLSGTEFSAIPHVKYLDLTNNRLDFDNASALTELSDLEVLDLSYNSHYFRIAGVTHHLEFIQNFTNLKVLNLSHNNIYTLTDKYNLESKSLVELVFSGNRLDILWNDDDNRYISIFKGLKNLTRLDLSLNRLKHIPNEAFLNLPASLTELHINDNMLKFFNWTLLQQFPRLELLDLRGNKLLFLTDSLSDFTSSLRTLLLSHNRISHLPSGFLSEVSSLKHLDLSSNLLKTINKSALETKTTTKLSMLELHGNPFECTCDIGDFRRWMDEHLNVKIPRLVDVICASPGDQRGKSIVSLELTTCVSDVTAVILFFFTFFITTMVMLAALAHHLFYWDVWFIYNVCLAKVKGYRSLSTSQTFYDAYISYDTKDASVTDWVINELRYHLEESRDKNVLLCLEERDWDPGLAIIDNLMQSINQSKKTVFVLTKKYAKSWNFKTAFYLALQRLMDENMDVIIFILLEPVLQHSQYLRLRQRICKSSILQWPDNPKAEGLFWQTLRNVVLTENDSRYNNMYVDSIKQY
The experiment in a line: TLR8 EC50 assay.

One may read the EC50 as the concentration at which the effect is half-maximal. The low end stands for an effect from little substance, the high end for a need for much substance. Take `Nc1nc2cc(-c3ccccc3F)ccc2c2[nH]c(CCCO)nc12` [Compound 203, 3-[4-amino-7-(2-fluorophenyl)-1H-imidazo[4,5-c]quinolin-2-yl]propan-1-ol]: the EC50 was over 100 µM on TLR7 (Table 2); over 100 µM on hNLRP3 (Table 2, 4 hours); over 100 µM at TLR8 (Table 2).

For `Nc1nc2cc(-c3ccc[nH]c3=O)ccc2c2[nH]c(CCCOCc3ccccc3)nc12` [Compound 249], the EC50 is over 100 µM on TLR7 (Table 2); 1 to 20 µM at hNLRP3 (Table 2, 4 hours); over 100 µM at TLR8 (Table 2).

`Nc1nc2cc(Cl)ccc2c2[nH]c(CCCO)nc12` [Compound 165, 3-(4-amino-7-chloro-1H-imidazo[4,5-c]quinolin-2-yl)propan-1-ol]: the EC50 at TLR7 (Table 2) is 20 to 100 µM; on hNLRP3 (Table 2, 4 hours), 20 to 100 µM; on TLR8 (Table 2), 20 to 100 µM.

Turning to `CCNC(C)c1nc2c(N)nc3cc(-c4cc[nH]n4)ccc3c2[nH]1` (stereo not drawn) [Compound 240], the EC50 on TLR7 (Table 2) was over 100 µM; on hNLRP3 (Table 2, 4 hours), 1 to 20 µM; on TLR8 (Table 2), over 100 µM.

In the case of `Nc1nc2cc(N3CCNC3=O)ccc2c2[nH]c(CCCO)nc12` [Compound 115], the EC50 was over 100 µM at TLR7 (Table 2); 1 to 20 µM at hNLRP3 (Table 2, 4 hours); over 100 µM at TLR8 (Table 2).

As for `Cc1ccncc1-c1ccc2c(c1)nc(N)c1nc(CCCO)[nH]c12` [Compound 213, 3-[4-amino-7-(4-methylpyridin-3-yl)-1H-imidazo[4,5-c]quinolin-2-yl]propan-1-ol], the 50% effective concentration (EC50) is 1 to 20 µM at TLR7 (Table 2); over 100 µM on hNLRP3 (Table 2, 4 hours); over 100 µM at TLR8 (Table 2).

Take `CCCc1ccc2c(c1)nc(N)c1nc(CCCO)[nH]c12` [Compound 160, 3-(4-amino-7-propyl-1H-imidazo[4,5-c]quinolin-2-yl)propan-1-ol]: the EC50 on TLR7 (Table 2) was 20 to 100 µM; on hNLRP3 (Table 2, 4 hours), at most 1 µM; on TLR8 (Table 2), over 100 µM.

On to `COc1cccc(-c2ccc3c(c2)nc(N)c2nc(CCCO)[nH]c23)n1` [Compound 246], for which the EC50 on TLR7 (Table 2) was over 100 µM; on hNLRP3 (Table 2, 4 hours), 1 to 20 µM; at TLR8 (Table 2) it was over 100 µM.

As to `Nc1nc2cc(C3CCCC3)ccc2c2[nH]c(CCCO)nc12` [Compound 161, 3-(4-amino-7-cyclopentyl-1H-imidazo[4,5-c]quinolin-2-yl)propan-1-ol], the EC50 on TLR7 (Table 2) is over 100 µM; at hNLRP3 (Table 2, 4 hours) it was at most 1 µM; on TLR8 (Table 2) it was over 100 µM.

Regarding `Nc1nc2ccccc2c2[nH]c(CCCO)nc12` [Compound 101, 3-[4-amino-1H-imidazo[4,5-c]quinolin-2-yl]propan-1-ol], the EC50 is 20 to 100 µM at TLR7 (Table 1); 20 to 100 µM on hNLRP3 (Table 1, 4 hours); 20 to 100 µM at TLR8 (Table 1).

Take `CC(C)c1ccc2c(c1)nc(N)c1nc(CCCO)[nH]c12` [Compound 159, 3-(4-amino-7-propan-2-yl-1H-imidazo[4,5-c]quinolin-2-yl)propan-1-ol]: the EC50 is 20 to 100 µM at TLR7 (Table 2); 1 to 20 µM at hNLRP3 (Table 2, 4 hours); over 100 µM on TLR8 (Table 2).

In the case of `CCN(C(C)=O)C(C)(C)c1nc2c(N)nc3cc(-c4cc[nH]n4)ccc3c2[nH]1` [Compound 253], the concentration giving a half-maximal response (EC50) at TLR7 (Table 2) is over 100 µM; on hNLRP3 (Table 2, 4 hours), 1 to 20 µM; on TLR8 (Table 2), over 100 µM.

On to `Nc1nc2cc(-c3ccccc3Cl)ccc2c2[nH]c(CCCO)nc12` [Compound 200, 3-[4-amino-7-(2-chlorophenyl)-1H-imidazo[4,5-c]quinolin-2-yl]propan-1-ol], for which the EC50 on TLR7 (Table 2) is over 100 µM; at hNLRP3 (Table 2, 4 hours) it was over 100 µM; at TLR8 (Table 2) it was over 100 µM.

As for `Nc1nc2cc(-c3cccc(=O)[nH]3)ccc2c2[nH]c(CCCO)nc12` [Compound 239], the EC50 was over 100 µM on TLR7 (Table 2); 1 to 20 µM on hNLRP3 (Table 2, 4 hours); over 100 µM at TLR8 (Table 2).

Consider `CSc1ccc(-c2ccc3c(c2)nc(N)c2nc(CCCO)[nH]c23)cn1` [Compound 173, 3-[4-amino-7-(6-methylsulfanylpyridin-3-yl)-1H-imidazo[4,5-c]quinolin-2-yl]propan-1-ol], for which the EC50 on TLR7 (Table 2) was over 100 µM; on hNLRP3 (Table 2, 4 hours) it was over 100 µM; at TLR8 (Table 2), over 100 µM.
